Data taken from publication PMC10003107, “Selectivity of Hydroxamate- and Difluoromethyloxadiazole-Based Inhibitors of Histone Deacetylase 6 In Vitro and in Cells” (International Journal of Molecular Sciences, 2023).
Where “and” joins values, the source holds several entries; their conditions need not be identical. Equal entries are not always repeated.

Assays:
HDAC10 = target: T1, HDAC10 (Homo sapiens, UniProt Q969S8); assay: In vitro deacetylation assay, HDAC10 (fluorescein-labeled N8-acetylspermidine, RP-HPLC); assay type: biochemical; conditions: for IC50: purified human HDAC10, read-out: IC50 HDAC10; for SI (HD6/HD10): ratio of IC50 HDAC10 divided by IC50 HDAC6
T1 construct: HDAC10 1 – 667 Open Biosystems; Strep-FLAG-HALO (N); made in house; host or cells: HEK293/T17
T1 sequence (Q969S8 1-667): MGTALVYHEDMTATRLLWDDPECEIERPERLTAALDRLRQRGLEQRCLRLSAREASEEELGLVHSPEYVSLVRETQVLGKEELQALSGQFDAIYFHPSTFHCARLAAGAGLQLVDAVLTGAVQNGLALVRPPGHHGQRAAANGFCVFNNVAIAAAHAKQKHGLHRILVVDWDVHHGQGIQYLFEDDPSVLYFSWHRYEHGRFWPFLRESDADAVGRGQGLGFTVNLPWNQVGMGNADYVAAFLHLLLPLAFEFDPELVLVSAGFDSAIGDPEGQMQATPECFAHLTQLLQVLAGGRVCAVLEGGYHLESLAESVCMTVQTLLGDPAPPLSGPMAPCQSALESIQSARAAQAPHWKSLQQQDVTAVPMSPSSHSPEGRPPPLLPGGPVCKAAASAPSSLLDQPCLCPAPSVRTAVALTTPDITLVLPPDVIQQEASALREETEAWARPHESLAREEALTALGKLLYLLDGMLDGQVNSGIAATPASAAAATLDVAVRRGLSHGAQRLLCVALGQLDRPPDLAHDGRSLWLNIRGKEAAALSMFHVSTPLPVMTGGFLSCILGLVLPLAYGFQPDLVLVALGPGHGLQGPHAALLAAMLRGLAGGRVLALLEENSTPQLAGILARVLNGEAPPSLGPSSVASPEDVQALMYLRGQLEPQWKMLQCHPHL

HDAC1-nanoLuc = HDAC1-nanoLuc (Homo sapiens, UniProt Q13547); assay: nanoBRET target engagement assay, HDAC1; assay type: cell-based; conditions: HEK293T/17 cells stably expressing HDAC1-nanoLuc, 2 h
HDAC1-nanoLuc, sequence (Q13547 whole entry): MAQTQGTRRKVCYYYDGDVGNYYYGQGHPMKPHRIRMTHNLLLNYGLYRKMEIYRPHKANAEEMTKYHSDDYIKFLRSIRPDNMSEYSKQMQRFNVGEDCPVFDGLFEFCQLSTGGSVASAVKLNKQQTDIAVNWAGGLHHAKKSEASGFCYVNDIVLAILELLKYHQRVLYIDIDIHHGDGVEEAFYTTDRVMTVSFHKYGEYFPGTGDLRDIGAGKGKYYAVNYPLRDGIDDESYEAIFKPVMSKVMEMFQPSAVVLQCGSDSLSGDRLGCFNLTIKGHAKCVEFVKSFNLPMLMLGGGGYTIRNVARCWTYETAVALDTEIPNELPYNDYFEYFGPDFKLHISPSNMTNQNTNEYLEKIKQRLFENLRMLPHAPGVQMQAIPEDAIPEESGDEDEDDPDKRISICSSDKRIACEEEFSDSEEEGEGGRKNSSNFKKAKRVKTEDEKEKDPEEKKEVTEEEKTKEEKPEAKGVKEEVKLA

tubulin acetylation = assay: Tubulin acetylation in RPMI-8226 cells by quantitative Western blotting; assay type: cell-based; conditions: Homo sapiens, RPMI-8226, 6 h; read-out: IC50 tubulin deacetylation (relative tubulin acetylation)
histone H3 acetylation = assay: Histone H3 (K9/K14) acetylation in RPMI-8226 cells by Western blotting; assay type: cell-based; conditions: 6 h, Western blot
RPMI-8226 lymphoblasts = assay: MTT viability assay; assay type: cell-based; conditions: RPMI-8226 cells, 48 h, MTT
Method: RPMI-8226 lymphoblasts (ATTC #CCL-155) were used to assess the cytotoxicity of tested compounds. […] Dilution series of tested inhibitors were prepared as 10x stock solutions in PBS and 10 μL was added to cells and incubated under a 5% CO2 atmosphere at 37 °C, for 2 days. Following incubation, 10 μL of MTT reagent (3-(4,5-dimethylthiazol-2-yl)-2,5-diphenyltetrazolium bromide, 5 mg/mL in PBS, Sigma Aldrich) was added to each well and incubated for 90 min, 37 °C, 5% CO2. […]

all other HDAC isoforms = assay: In vitro isotype selectivity screening against panel of zinc-dependent human HDACs; assay type: biochemical
Method: Customized assays were used for individual HDAC isoforms to reflect their distinct substrate specificity. All reactions were carried out in the activity buffer comprising 50 mM HEPES, 140 mM NaCl, 10 mM KCl, pH 7.4 supplemented with 1 mg/mL bovine serum albumin (BSA) and 1 mM tris(2-carboxyethyl) phosphine (TCEP).
HDACs 1–9, 11: Assays were performed essentially as described previously. Briefly, the Ac-GAK-Ac-AMC substrate was used to determine the activity of HDACs 1, 2, 3, and 6; and the Boc-Lys(TFA)-AMC substrate was used for HDACs 4, 5, 7, 8, 9, and 11 (both substrates Bachem, Bubendorf, Switzerland). […] Released aminometyl coumarine was quantified using a CLARIOstar plate reader (BMG Labtech GmbH, Ortenberg, Germany) at λex/λem = 365/440 nm.
HDAC10: Recombinant human HDAC10 (0.5 nM) in the reaction buffer was preincubated with a 3-fold dilution series of a tested inhibitor at 37 °C for 15 min and the reaction initiated by the addition of a substrate (N8-acetylspermidine labeled with fluorescein; 10 µM final concentration) in a total volume of 50 µL. […] Reaction mixtures were analyzed by RP-HPLC with a Kinetex 2.6 μm XB-C18 100 Å column with a fluorescence detector set to λEX/λEM = 492/516.
HDAC inhibition was calculated using corresponding non-inhibited reactions as a control. […]

SMILES: O=C(NO)c1cnc(NC2(c3cccc(F)c3)CCCCC2)nc1 [ACY-775]
- IC50 (HDAC10): 34 nM
- SI (HD6/HD10) (HDAC10): 30.6
- EC50 (HDAC1-nanoLuc): > 50000 nM
- IC50 (tubulin acetylation): 426 nM

SMILES: CS(=O)(=O)N(Cc1ccc(-c2nnc(C(F)F)o2)cn1)c1cccc(Cl)c1 [compound 7, N-(3-chlorophenyl)-N-((5-(5-(difluoromethyl)-1,3,4-oxadiazol-2-yl)pyridin-2-yl)methyl)methanesulfonamide]
- IC50 (HDAC10): > 50000 nM
- SI (HD6/HD10) (HDAC10): >25,000
- EC50 (HDAC1-nanoLuc): > 50000 nM
- IC50 (tubulin acetylation): 616 nM
- effect on histone H3 (K9/K14) acetylation, class I HDAC inhibition (histone H3 acetylation): does not increase H3 acetylation even at the highest concentrations
- effect on cell viability (RPMI-8226 lymphoblasts): less pronounced effects on cell viability at high inhibitor concentrations
- selectivity for HDAC6 over all other HDAC isoforms (all other HDAC isoforms): 10,000 fold and > 10,000 fold
